Where two headings read alike, the source gives them in different places. Marks after values point to notes of the source that are not given here.
Assays:
[1] = system: Enterococcus faecalis (OG1RF); assay: Minimum inhibitory concentration (MIC), broth microdilution; assay type: cell-based; details: for MIC: read-out: MIC E. faecalis
Procedure, shortened: (§1)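 Broth microdilution: two-fold serial dilutions (twelve concentrations) mixed 1:1 with overnight cultures diluted to ca. 10^6 cfu/mL in Mueller-Hinton media, incubated statically at 37° C for 72 hours. MIC is lowest concentration with no growth visible to the naked eye, majority of three independent experiments.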

[2] = system: Escherichia coli (MC4100); assay: as above; assay type: cell-based; details: for MIC: read-out: MIC E. coli
Procedure, shortened: as §1

[3] = system: Pseudomonas aeruginosa (PAO1); assay: as above; assay type: cell-based
Procedure, shortened: as §1

[4] = system: Staphylococcus aureus MSSA (SH1000); assay: as above; assay type: cell-based
Procedure, shortened: as §1

CA-MRSA (USA300-0114) [5] = assay: as above; assay type: cell-based, Staphylococcus aureus; details: for MIC: read-out: MIC CA-MRSA
Experimental: (§2) Different biological assays were performed. […] All cultures, with the exception of E. faecalis, were grown with shaking at 250 rpm.
(§3) Minimum inhibitory concentration (MIC) values against bacteria were measured using standard method. Compounds were serially diluted two-fold from an aqueous stock solution to yield twelve test concentrations. Overnight S. aureus, E. faecalis, E. coli, P. aeruginosa, CA-MRSA, and HA-MRSA cultures diluted to ca. 10^6 cfu/mL in Mueller-Hinton media and 100 μL were inoculated into each well of a U-bottom 96-well plate (BD Biosciences, BD351177) containing 100 μL of compound solution. Plates were incubated statically at 37° C. for 72 hours upon which time wells were evaluated visually for bacterial growth. The MIC was determined as the lowest concentration of compound resulting in no bacterial growth visible to the naked eye, based on the majority of three independent experiments. Positive and negative aqueous and media controls were conducted for each trial.

HA-MRSA (ATCC 33591) = assay: as above; assay type: cell-based, Staphylococcus aureus; details: for MIC: read-out: MIC HA-MRSA
Experimental: as §2, §3

[6] = system: S. aureus (MSSA, SH1000) biofilms; assay: Minimum biofilm eradication concentration (MBEC), regrowth assay; assay type: cell-based, Staphylococcus aureus; details: for MBEC MSSA: Table 5, SH1000
Procedure, shortened: (§4)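 Static 24 h biofilms at 37° C. (BHI for S. aureus, Todd Hewitt for E. faecalis), then 16 h compound exposure, PBS washes and overnight regrowth in fresh media. MBEC is the lowest concentration giving final OD595 below 0.1; four replicates per concentration.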

E. faecalis biofilms = assay: as above; assay type: cell-based, Enterococcus faecalis
Procedure, shortened: as §4

[7] = system: CA-MRSA (USA300-0114) biofilms; assay: as above; assay type: cell-based, Staphylococcus aureus; details: for MBEC CA-MRSA: Table 5, USA300-0114
Experimental: A regrowth assay was used to establish the MBEC of a compound to evaluate the antibiofilm activity. See also H. Ceri, M. Olson, D. Morck, D. Storey, R. Read, A. Buret, B. Olson, Methods Enzymol. 2001, 337, 377.
Different biological assays were performed. For all biological assays, laboratory strains of methicillin-susceptible Staphylococcus aureus MSSA (SH1000), Enterococcus faecalis (OG1RF), Escherichia coli (MC4100), Pseudomonas aeruginosa (PAO1), community-acquired methicillin-resistant Staphylococcus aureus CA-MRSA (USA300-0114), and hospital-acquired methicillin-resistant Staphylococcus aureus HA-MRSA (ATCC 33591) were grown at 37° C. overnight from freezer stocks in 10 mL of the media indicated for each assay. All cultures, with the exception of E. faecalis, were grown with shaking at 250 rpm.
Minimum biofilm eradication concentration (MBEC) was also measured. To each well of a flat-bottomed 96-well plate (Corning 3370), 8 μL of overnight bacterial culture was brought to a volume of 200 μL with fresh media (BHI for S. aureus and MRSA, Todd Hewitt (TH) for E. faecalis). Plates were incubated statically for 24 hours at 37° C. to establish biofilms. After 24 hours, the wells were carefully emptied by inverting the plate and gently shaking. A pre-mixed solution of media and aqueous compound stock solution was added to each well and plates were incubated at 37° C. 16 hours after pre-established biofilms were treated with compound, the media from each well was removed, biofilms were washed three times with 200 μL PBS to remove planktonic cells, and biofilms were incubated overnight at 37° C. in 200 μL of fresh media to allow any viable cells to continue growing. The wells were then vigorously pipetted to resuspend the biofilm cells and the OD at 595 nm was measured using a plate reader (POLARstar Omega, BMG Labtech). Biofilms reaching a final OD of less than 0.1 were considered eradicated and the lowest concentration of antibiotic corresponded to the MBEC. Four replicates were completed for each concentration of compound as well as positive and negative controls.

[8] = system: red blood cells (defibrinated sheep blood); assay: Hemolysis assay (Lysis20); details: concentration at which less than 20% of red blood cells are lysed
Experimental: Hemolysis assays (Lysis20) were performed according to the procedure detailed in Peng, L., DeSousa, J., Su, Z., Novak, B. M., Nevzorov, A. A., Garland, E. R., and Melander, C., Inhibition of Acinetobacter baumannii biofilm formation on a methacrylate polymer containing a 2-aminoimidazole subunit, Chem. Comm. 2011, 47, 4896-4898. Defibrinated sheep blood was purchased from Hemostat Labs (DSB 100). Compounds representative of each class were serially diluted in sterile PBS from aqueous stock solutions and incubated with resuspended blood cells. The OD of the final suspensions were measured directly using plate reader. TritonX (1% by volume) served as a positive control (100% lysis marker) and sterile PBS served as a negative control (0% lysis marker).
Lysis20 indicates the concentration of compound (in μM) at which less than 20% of red blood cells are lysed.

MSSA (SH1000) = assay: Resistance development, liquid culture serial passage; assay type: cell-based, Staphylococcus aureus; details: for elevated concentration with consistent growth: MSSA (SH1000) passaged with sub-lethal doses; for resistance in serial passage, MSSA: over 24 days (>500 generations)
Experimental: (§5) Resistance development such as liquid culture resistance assay was performed. […] Once a day, an aliquot of bacterial culture from the highest concentration allowing bacterial growth was diluted 1:10,000 in fresh media containing a range of antibacterial compound. This process was repeated for several hundred generations.
(§6) Resistance Development Assays: Liquid culture serial passage protocols, in which bacteria are successively grown at sub-lethal concentrations of antibacterial compound, were employed.

S. aureus biofilms = assay: Crystal violet staining and confocal microscopy of pre-established biofilms; assay type: cell-based, Staphylococcus aureus; details: compared to the aqueous control or norspermidine; 16 h post-treatment
Experimental: Left: Submerged S. aureus biofilms 16 h post-treatment with the indicated final well concentration of compound. Middle: Biofilms stained with 1% crystal violet. Right: Confocal microscopy images of biofilms 16 h post-treatment.
The inventors have determined that both cationic character and alkyl side chains are important for biofilm eradication.

CA-MRSA (USA300-0114) [9] = assay: Resistance development, liquid culture serial passage; assay type: cell-based, Staphylococcus aureus; details: for resistance in serial passage, CA-MRSA (USA300-0114): over 24 days (>500 generations)
Experimental: as §5, §6

[10] = Table 3, read-out: MIC P. aeruginosa
[11] = Table 3, read-out: MIC S. aureus
[12] = Table 2, pre-established biofilm, ± values varied between 50 and 100 μM for the six trials
[13] = Table 1, read-out: MIC P. aeruginosa
[14] = Table 1, read-out: MIC S. aureus
[15] = Table 4, SH1000, read-out: MIC MSSA
[16] = table for compound (12,3,2,3,12)
[17] = over a period of at least 14 days

Row | Compound | MIC ([1]; Table 3) | MIC ([2]; Table 3) | MIC [3, 10] | MIC [4, 11] | MBEC S. aureus [6, 12] | MBEC MSSA [6] | MBEC E. faecalis (E. faecalis biofilms; [12]) | MBEC E. faecalis (E. faecalis biofilms; Table 5) | MBEC CA-MRSA [7] | Lysis20 ([8]; Table 4) | MIC ([1]; Table 1) | MIC ([2]; Table 1) | MIC [3, 13] | MIC [4, 14] | MIC [4, 15] | MIC (CA-MRSA (USA300-0114) [5]; Table 4, USA300-0114) | MIC (HA-MRSA (ATCC 33591); Table 4, ATCC 33591) | effect against pre-established biofilms, crystal violet staining (S. aureus biofilms) | resistance in serial passage, CA-MRSA (USA300-0114) (CA-MRSA (USA300-0114) [9]) | resistance in serial passage, MSSA (MSSA (SH1000)) | also measured
1 | CCCCCCCCCCCC[N+](C)(C)Cc1ccccc1.[Cl-] [Bn,12, benzyldimethyldodecylammonium chloride, reference compound] | 8 µM | 32 µM | 63 µM | 8 µM | 200 µM | >200 µM | 200 µM | ≥200 µM | ≤200 µM | 63 µM | – | – | – | – | – | – | – | – | – | – | MIC ([1]; Enterococcus faecalis): 8 µM; MIC ([2]; Escherichia coli): 32 µM; MIC ([3]; Pseudomonas aeruginosa, PAO1, read-out: MIC P. aeruginosa): 63 µM; MIC ([4]; Staphylococcus aureus, MSSA, read-out: MIC MSSA): 8 µM; MIC ([4]; Staphylococcus aureus, MSSA, read-out: MIC S. aureus): 8 µM; MIC (CA-MRSA (USA300-0114) [5]; Staphylococcus aureus): 32 µM; potency against CA-MRSA strain possessing qacA/R (in words) (CA-MRSA (USA300-0114) [5]; compared with MSSA): decreased potency; MIC (HA-MRSA (ATCC 33591); Staphylococcus aureus): 8 µM; resistance development in MSSA (in words) (MSSA (SH1000); Bn,12: 31 days (>700 generations), 10,10: 10 days, 240 generations): development of resistance; elevated concentration with consistent growth (MSSA (SH1000); at day 11): 2 ×MIC; elevated concentration with consistent growth (MSSA (SH1000); at day 24): 4 ×MIC
2 | CCCCCCCCCCCC[N+](C)(C)CCCN(C)CCC[N+](C)(C)CCCCCCCCCCCC.[Br-].[Br-] [12,3,0,3,12] | 2 µM | 1 µM | 4 µM | 1 µM | 100 µM | 50 µM | 50 µM | 100 µM | 150 ± 50 µM | 4 µM | ≤0.25 µM | ≤0.25 µM | 4 µM | 1 µM | 1 µM | 1 µM | 0.5 µM | significant effect | – | – | –
3 | CCCCCCCCCCCC[N+](C)(C)CCC[N+](C)(CC)CCC[N+](C)(C)CCCCCCCCCCCC.[Br-].[Br-].[Br-] [12,3,2,3,12] | – | – | – | – | – | 100 µM | – | 100 µM | 100 µM | 8 µM | – | – | – | – | 0.5 µM | 0.5 µM | 1 µM | – | No resistance was observed | No resistance was observed | MIC E. faecalis (OG1RF) [1, 16]: 0.5 µM; MIC E. coli (MC4100) [2, 16]: 1 µM; MIC P. aeruginosa (PA01) [3, 16]: 2 µM; MIC S. aureus (SH1000) [4, 16]: 0.5 µM; MIC CA-MRSA (USA300-0114) (CA-MRSA (USA300-0114) [5]; [16]): 0.5 µM; MIC HA-MRSA (ATCC33591) (HA-MRSA (ATCC 33591); [16]): 1 µM; MBEC S. aureus [6, 16]: 100 µM; MBEC E. faecalis (E. faecalis biofilms; [16]): 100 µM; MBEC USA300-0114 [7, 16]: 100 µM; Lysis20 [8, 16]: 8 µM; resistance in serially passaged liquid culture, USA300-0114 (CA-MRSA (USA300-0114) [9]; [17]): No resistance was observed; resistance in serially passaged liquid culture, SH1000 (MSSA (SH1000); [17]): No resistance was observed
4 | CCCCCCCCCCCC[N+](C)(C)CCC[N+](C)(C)CCCCCCCCCCCC.[Br-].[Br-] [12,3,12] | – | – | – | – | 100 µM | 75 ± 25 µM | 75 ± 25^a μM | 50 µM | 100 µM | 8 µM | 1 µM | 1 µM | 4 µM | 2 µM | 2 µM | 1 µM | 2 µM | significant effect | No resistance was observed | No resistance was observed | –
5 | CCCCCCCCCCCC[N+](C)(C)CCC[N+](C)(C)CCC[N+](C)(C)CCCCCCCCCCCC.[Br-].[Br-].[I-] [12,3,1,3,12] | 2 µM | 2 µM | 8 µM | 1 µM | 100 µM | 100 µM | 50 µM | 200 µM | 150 ± 50 µM | 8 µM | 1 µM | 1 µM | 2 µM | 0.5 µM | 1 µM | 0.5 µM | 1 µM | significant effect | – | – | –

Reference: patent US10398142B2, “Polycationic amphiphiles as antimicrobial agents” (priority 2013, dated 2019)
